Laboratory results from patent US6180599A, “Pharmaceutical composition, containing medium-chain fatty acids as active ingredients, for dental caries and periodontal disease” (priority 1997, dated 2001).

Experiments:
A. viscosus ATCC 15987 = assay: Inhibitory effect on extracellular polysaccharide synthesis, standard strain; type: cell-based; conditions: 1 mM
Experimental: (§1) In order to identify the effect by which medium-chain fatty acids inhibit plaque matrix formation, inhibitory effect and concentration of extracellular polysaccharide synthesis were determined in seven kinds of standard cariogenic plaque bacteria. Also, the inhibitory effect of extracellular polysaccharide synthesis for 20 kinds of cariogenic plaque bacteria, separated from the human oral cavity, was measured. Liquid culture media used were: Todd-Hewitt broth of Streptococcus, Lactobacilli MRS broth of Lactobacillus and Brain Heart Infusion broth of Actinomyces. 0.1 ml of bacterial (or cell) suspension (OD600 =0.5) of each bacteria was inoculated to 5.9 ml of culture media containing 1 mM of medium-chain fatty acids and 2% of glucose, and was cultured for 24^~ 48 hours in 10% CO2 incubator. After culturing, the resultant was centrifuged to precipitate at 5,000×g for 15 minutes, then soluble extracellular polysaccharide was separated and purified from the supernatant and insoluble extracellular polysaccharide from the cell pellet, and then these were quantified.

[1] = Extracellular polysaccharide in liquid medium with fatty acid, no bacteria
Experimental: as §1

[2] = system: cariogenic plaque bacteria; assay: Inhibitory effect on extracellular polysaccharide synthesis (summary); type: cell-based, Streptococcus, Lactobacillus and Actinomyces; conditions: 1 mM
Experimental: as §1, with “quantified. So the experimental results that represent inhibitory effect of medium-chain fatty acids upon extracellular polysaccharide synthesis, are shown in table 1, 2, 3 and 4.” for “quantified.”

dental caries = assay: Inhibitory effect on the occurrence of dental caries in rats; type: in vivo, Sprague-Dawley rats; conditions: for Linear unit for fissure-region dental caries, Dm: dentine moderate; for Linear unit for fissure-region dental caries, Dm / Linear unit for fissure-region dental caries, Ds / Linear unit for fissure-region dental caries, E: 50 mM in feed, 120 days; for Linear unit for fissure-region dental caries, Ds: dentine slight; for Linear unit for fissure-region dental caries, E: enamel only
Experimental: This experiment was carried out utilizing a dental caries experiment model in rats of Navia (1977) as followings.
Experimental animals were 48 (male: 24, female: 24) Sprague-Dawley rats, four-weeks old and of […] average body weight. These animals are equally divided into three groups according to sex and body weight at the early stage, and all these animals have clinically healthy teeth.
Experimental animals are divided into 3 groups according to diet, which are a control group of normal feed, a group of dental caries-induced feed and a experimental group of sodium laurate-added feed. Normal feed is solid feed for rodents (SAMYANG Co., Korea), caries-induced feed is prepared by mixing 40% sugar, 32% powdered milk, 21% flour, 5% yeast, 2% anchovy, 0.01% vitamin B and 0.01% vitamin C. Sodium laurate-added feed was prepared by adding 50 mM of sodium laurate to caries-induced feed. All the experimental animals were allowed water ad libitum.
One hundred twenty days later, all experimental animals were euthanized. The maxilla and mandible were separated, and fixed in 10% neutral formalin. A dental caries index was measured by the method originated by Keyes and modified by Larson (1981). Food debris remaining in the fissure of molar of maxilla and mandible was removed by a Barbed Broach tool used in clinical dentistry, then the molar teeth of maxilla and mandible were cut so that they could include the first, second, and third molar by using an Exact cutting system (Exact-Apprateb, Hamburg, Germany) equipped with a diamond-treated saw. Cutting of the molar teeth of both maxilla and mandible was carried out by a handpiece equipped with cutting disc (thickness, 0.004 inch; diameter, 0.75 inch). The direction of the cutting was from the mesial side of the first molar to the distal side of the third molar. The samples which were cut were stained in order to measure the dental caries-index easily. Staining was carried out as follows; samples were cultured with 0.02% solution of ammonium prupurate (murexide) for 12 hours, washed with flowing water for 10 minutes, then treated with 0.2% of ammoniacal silver nitrate for 30 seconds and washed with flowing water for 2 minutes before measurement. The degree of the affection of dental caries at the cut surface is classified into enamel only (E) when dental caries is affected only to enamel; and into slight (Ds), moderate (Dm) and extensive (Dx) according to the extent of affection when dental caries is affected further into the dentine. The total sum was calculated by adding up marks within the range of linear units administered to each tooth according to the modified method of Larson (1981).
Statistical analysis of each group concerning the linear unit, showing the extent of dental caries, was carried out using the Mann-Whitney test. Statistical analysis according to the feed and the region where the teeth were placed (maxilla or mandible) was carried out by the Kruskal-Wallis test. If more than 2/3 of the dental crown was lost due to serious abrasion and if it was impossible to observe in the process of treating samples, these teeth were excluded in the statistics.

CCCCCCCCCCCC(=O)[O-].[Na+] [C12, sodium laurate]
Extracellular polysaccharide, insoluble (A. viscosus ATCC 15987; 2% glucose, 24-48 hours, control 2.1 ± 0.2): 0.2 ± 0.1 µg/mL
Extracellular polysaccharide, soluble (A. viscosus ATCC 15987; 2% glucose, 24-48 hours, control 222.8 ± 3.3): 25.3 ± 1.7 µg/mL
Inhibitory rate, soluble (A. viscosus ATCC 15987; vs control): 89%
Extracellular polysaccharide, soluble ([1]; Table 1, 1 mM): 1.4 ± 0.1 µg/mL
Extracellular polysaccharide, soluble ([1]; Table 2, 1 mM): 4.6 ± 1.3 µg/mL
Extracellular polysaccharide, soluble ([1]; Table 3, 1 mM): 4.4 ± 0.2 µg/mL
inhibitory effect of extracellular polysaccharide synthesis (in words) [2]: inhibited in the highest degree
inhibitory effect of extracellular polysaccharide synthesis, sequence ([2]; ranking): sodium laurate>sodium capriate>sodium nonanoate
Linear unit, Total (average ± standard deviation) (dental caries; 164 teeth, P < 0.01 vs caries-inducing feed (3.01 ± 2.35), normal feed 2.34 ± 1.37): 1.71 ± 1.26
Linear unit for fissure-region dental caries, Dm (dental caries; Mandible, 1st molar): 0
Linear unit for fissure-region dental caries, Ds (dental caries; Mandible, 1st molar): 7
Linear unit for fissure-region dental caries, E (dental caries; Mandible, 1st molar): 72
Linear unit for fissure-region dental caries, Dm (dental caries; Mandible, 2nd molar): 0
Linear unit for fissure-region dental caries, Ds (dental caries; Mandible, 2nd molar): 10
Linear unit for fissure-region dental caries, E (dental caries; Mandible, 2nd molar): 55
Linear unit for fissure-region dental caries, Dm (dental caries; Mandible, 3rd molar): 0
Linear unit for fissure-region dental caries, Ds (dental caries; Mandible, 3rd molar): 0
Linear unit for fissure-region dental caries, E (dental caries; Mandible, 3rd molar): 16
Linear unit for fissure-region dental caries, Dm (dental caries; Maxilla, 1st molar): 0
Linear unit for fissure-region dental caries, Ds (dental caries; Maxilla, 1st molar): 1
Linear unit for fissure-region dental caries, E (dental caries; Maxilla, 1st molar): 61
Linear unit for fissure-region dental caries, Dm (dental caries; Maxilla, 2nd molar): 0
Linear unit for fissure-region dental caries, Ds (dental caries; Maxilla, 2nd molar): 0
Linear unit for fissure-region dental caries, E (dental caries; Maxilla, 2nd molar): 41
Linear unit for fissure-region dental caries, Dm (dental caries; Maxilla, 3rd molar): 0
Linear unit for fissure-region dental caries, Ds (dental caries; Maxilla, 3rd molar): 0
Linear unit for fissure-region dental caries, E (dental caries; Maxilla, 3rd molar): 17
dental caries in experimental animals (in words) (dental caries; sodium laurate-added feed): noticeably reduced dental caries in experimental animals
